Data reported in patent US20260159826A1, “METHOD OF MODIFYING CELLS” (ROYAL MELBOURNE INSTITUTE OF TECHNOLOGY, priority 2022, published 2026).

What was measured:
[1] = tested on: HUVEC monolayers; experiment: VE-cadherin remodelling, CAB formation, linearity index and AJ length in SRBW mechanostimulated cells with pathway inhibitors; assay type: cell-based, human; conditions: for Linearity index / AJ length (adhesion site length) / CAB formation: SRBW 8 mins at 1.5 W, GGTI-298 15 μM, NSC23766 10 μM; for Linearity index / AJ length (adhesion site length): 30 mins post exposure; for Linearity index: FIG. 6(b); for AJ length (adhesion site length): FIG. 6(c)
[2] = tested on: THP-1 cells; experiment: Wash assay (adherence assay) of SRBW stimulated monocytes pretreated with inhibitors/chelators; assay type: cell-based; conditions: SRBW Treatment 4, 36 hours post exposure, BAPTA-AM 20 μM, Thapsigargin 300 nM, TPEN 1 mM, GGTI-298 15 μM, HJC0197 25 μM, FIG. 18, 19
Description: Cell culture and Mechanostimulation: THP-1 cells were obtained from CellBank (Children Medical Research institute, NSW) and grown in suspension in RPMI+Glutamax supplemented with 10% (v/v) heat-inactivated FBS with 1% penicillin-streptomycin in a humidified 37° C., 5% CO2 incubator. Low passage (passage 15 or less) cells were seeded at cell density ranging from 0.5×10^5-0.5×10^6 per cm^2. The cells were then stimulated with SRBW at a frequency of 10 Mhz and at the indicated input power and duration. The cells were stimulated and processed at different post-exposure incubation times (24 h, 36 h, 48 h, 72 h, Day 5, Day 7, Day 9).
Wash Assay: Control (untreated) and treated cells were initially characterised by wash-assay or adherence assay. Undifferentiated THP1 cells were non-adherent cells. Accordingly, cells were initially characterised by determining the percentage of adherent cells. The spent media from control and treated wells were carefully collected into labelled centrifuge tubes. The wells were washed three times with media. After each wash, the wash media was collected into corresponding centrifuge tubes. The tubes were then centrifuged at 250×g for 5 minutes. The supernatant was carefully removed, and the pellet was homogeneously mixed with 1×PBS. The cells collected from spent and wash media were counted trypan blue exclusion assay using a hemocytometer. The percentage of adherent cells was calculated by (number of cells from control wells—number of cells from treated wells/number of cells from control wells)×100. The viability was also determined using the same. The change in the cellular morphology was also recorded using Nikon.

[3] = tested on: endothelial cells; experiment: Stress fibre (SF) formation after SRBW exposure under ROCK inhibition; assay type: cell-based, human; conditions: initial sonochallenge phase, early times (<0.3 hrs) after SRBW; data not shown
[4] = tested on: HUVEC monolayers; experiment: Intracellular cAMP (cyclic AMP XP assay) in SRBW mechanostimulated cells with Ca2+ inhibitors and chelators; assay type: cell-based, human; conditions: for cAMP release: SRBW pretreatment in the presence of extracellular calcium, then sequential treatment, FIG. 2(e-iv), 2(e-v); for cAMP levels under SRBW mechanostimulation: pretreatment with BAPTA-AM and TPEN together, FIG. 2(e-ii)
Description: (§1) Endothelial cells were cultured in Endothelial Cell Growth Medium-2 (EGM™2) BulletKit™ in a humidified incubator maintained at 37° C. and 5% CO2. The cells were grown in a standard T25 flask until they reached 80-90% confluency, following which they were detached using 0.05% trypsin-EDTA, reseeded in the culture plates at a density of 5000 cells/cm2 and incubated until they reached 90-95% confluency. The confluent monolayer is then exposed to the SRBW irradiation at the prescribed input power and duration. The cells were immediately processed for analysis upon removal of the acoustic field at various post-exposure incubation timepoints.
cAMP concentrations were measured through a cyclic AMP XP™ assay. Briefly, the EC monolayers were washed in Tyrode's buffer (137mMsodium chloride, 12mMsodium bi-carbonate, 5.5 mM glucose, 2 mM potassium chloride, 1mMmagnesium chloride and 0.3 mM disodium hydrogen phosphate) at pH 7.4 supplemented with […] IBMX—a phosphodiesterase inhibitor, to prevent the hydrolysis of cAMP. The cells were then exposed to the SRBW followed by incubation at different time points, after which the cells were lysed in 100 μl of lysis buffer that was supplied with the kit. 25 μl of the cell lysate and HRP-linked cAMP solution was subsequently transferred into the cAMP assay microtiter plates provided and incubated for 3 hrs at room temperature. Following incubation, the plate was washed four times and the liquid discarded. 100 μl of the supplied 3,3′,5,5″-tetramethylbenzidine (TMB) was then added and the solution incubated in the dark for 15 mins. The reaction was ceased by adding 100 μl of the provided STOP solution and its absorbance measured at 450 nm using a spectrophotometric plate reader (CLARIOstar, BMG LabTech, Mornington, VIC, Australia). The average of three measurements per treatment group was taken for cells from each individual culture, from which the cAMP concentrations can be calculated using a standard curve.

[5] = tested on: HUVEC monolayers; assay type: cell-based, human; conditions: SRBW 8 mins at 1.5 W; in the presence of piezo channel inhibitor; FIG. 4(b)
Description: as §1
Free cytosolic calcium levels were determined using the fluorescent calcium indicator Fura-2AM. In brief, the EC monolayers were incubated in […] Fura-2AM in Opti-MEM™ reduced serum medium supplemented with 2% (vol/vol) heat-inactivated FBS at 37° C. in the dark. […] The fluorescence emission intensity at 510 nm in individual wells at excitation wavelengths of 340 and 380 nm were measured using a spectrophotometric plate reader (CLARIOstar® BMG LabTech, Mornington, VIC, Australia). The ratio of Fura-2 AM fluorescence emission in response to 340 nm and 380 nm excitation (340/380) was calculated and expressed in terms of the fold change with respect to that of the respective control (unexcited) cells. […]

**Q.** `CCCCCCOC(=O)[C@]1(O)C[C@H]2O[C@]1(C)n1c3ccccc3c3c4c(c5c6ccccc6n2c5c31)C(=O)NC4` [KT5720, (9S,10S,12R)-2,3,9,10,11,12-hexahydro-10-hydroxy-9-methyl-1-oxo-9,12-epoxy-1H-diindolo[1,2,3-fg:3′,2′,1′-kl]pyrrolo[3,4-i][1,6]benzodiazocine-10-carboxylic acid hexyl ester] was tested. Which “VE-cadherin remodelling and CAB formation” value ([1]; treated prior to SRBW mechanostimulation, data not shown) did it give?
**A.** Its value is “quelled”.

**Q.** What does the source list for `COC(=O)[C@H](CC(C)C)NC(=O)c1ccc(NC[C@@H](N)CS)cc1-c1cccc2ccccc12.O.O=C(O)C(F)(F)F` [GGTI-298, N-[[4-(2-(R)-amino-3-mercaptopropyl)amino]-2-naphthylbenzoyl]leucine methyl ester trifluoroacetate salt hydrate]?
**A.** number of adherent cells [2]: significantly reduced; Linearity index [1]: departure from linearity; AJ length (adhesion site length) [1]: increased adhesion site length; CAB formation ([1]; data not shown): only limited CAB formation

**Q.** How did the “number of adherent cells” value [2] turn out when `Cc1ccc(C)c(CSc2nc(C3CCCC3)c(C#N)c(=O)[nH]2)c1` [HJC0197, 4-cyclopentyl-2-[[(2,5-dimethylphenyl)methyl]thio]-1,6-dihydro-6-oxo-5-pyrimidinecarbonitrile] was run?
**A.** Its value is “significantly reduced”.

**Q.** Which “stress fibre (SF) formation” value [3] does the source give for `C[C@@H](N)[C@H]1CC[C@H](C(=O)Nc2ccncc2)CC1.Cl.Cl` [Y27632, (R)-(+)-trans-4-(1-aminoethyl)-N-(4-pyridyl)cyclohexanecarboxamide dihydrochloride] here?
**A.** The value was “SF attenuation”.

**Q.** Which results are given for `CC(=O)OCOC(=O)CN(CC(=O)OCOC(C)=O)c1ccccc1OCCOc1ccccc1N(CC(=O)OCOC(C)=O)CC(=O)OCOC(C)=O` [BAPTA-AM, 1,2-bis(2-aminophenoxy)ethane-N,N,N′,N′-tetraacetic acid tetrakis(acetoxymethyl ester)]?
**A.** number of adherent cells [2]: reduced significantly; cAMP release [4]: not suppressed; cAMP levels under SRBW mechanostimulation [4]: increased under the SRBW mechanostimulation only when extracellular calcium is present

**Q.** For `N.N.N.N.N.N.N.N.N.N.N.N.N.N.[Cl-].[Cl-].[Cl-].[Cl-].[Cl-].[Cl-].[O-2].[O-2].[Ru+3].[Ru+3].[Ru+4]` [ruthenium red], which “intracellular calcium under the high frequency excitation” value [5] is on record?
**A.** The value was “abatement of intracellular calcium”.

**Q.** With `C[C@H](CCC(=O)O)C[C@H](C)C[C@H](C)C(=O)/C=C(\O)[C@H](C)C[C@H](C)C/C=C/[C@@H](C)[C@@H](O)[C@@H](C)[C@@H](O)C[C@@H]1CC[C@@](C)([C@H]2CC[C@@](C)([C@@H](C)O)O2)O1` [ionomycin] as the compound, how does the cAMP release [4] read?
**A.** Its cAMP release is “affected”.

**Q.** What about the cAMP levels ([4]; SRBW pretreatment, then chelation/inhibition, then ionomycin added, FIG. 2(e-iii), 40-50 mins) of the same compound?
**A.** The cAMP levels was “cAMP levels were observed to rise”.

**Q.** What does the source list for `c1ccc(CN(CCN(Cc2ccccn2)Cc2ccccn2)Cc2ccccn2)nc1` [TPEN, N,N,N′,N′-tetrakis(2-pyridinylmethyl)-1,2-ethanediamine]?
**A.** number of adherent cells [2]: failed to transform to adherent cells; cAMP release [4]: affected; cAMP levels under SRBW mechanostimulation [4]: increased under the SRBW mechanostimulation only when extracellular calcium is present

**Q.** What does the source list for `CCN(CC)CCCC(C)Nc1nc(C)cc(Nc2ccc3nc(C)cc(N)c3c2)n1.Cl.Cl.Cl` (racemic) [NSC23766, N6-[2-(4-diethylamino-1-methyl-butylamino)-6-methyl-pyrimidin-4-yl]-2-methyl-quinoline-4,6-diamine trihydrochloride]?
**A.** Linearity index [1]: departure from linearity; AJ length (adhesion site length) [1]: increased adhesion site length; CAB formation ([1]; data not shown): only limited CAB formation
